Measurements from PubChem BioAssay (NCI).
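A five-concentration, 48-hour dose response in 96-well plates underlies each endpoint, interpolated linearly between surrounding concentrations. GI50: concentration for 50% inhibition of growth. Definition used: TGI = concentration required for complete inhibition of growth.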 Where a SMILES comes first, the peptide text is derived from it. The star is where a group is joined. Boc = CC(C)(C)OC(=O)*

How the values were obtained:
Test in all cases: NCI tumour cell line growth inhibition, 48 h
UACC-62 melanoma = system: UACC-62 melanoma
HCT-116 colon = system: HCT-116 colon
OVCAR-8 ovarian = system: OVCAR-8 ovarian
UACC-257 melanoma = system: UACC-257 melanoma
MOLT-4 leukemia = system: MOLT-4 leukemia
SNB-75 CNS = system: SNB-75 CNS
OVCAR-5 ovarian = system: OVCAR-5 ovarian
SW-620 colon = system: SW-620 colon
CAKI-1 renal = system: CAKI-1 renal
DLD-1 colon = system: DLD-1 colon
M19-MEL melanoma = system: M19-MEL melanoma
SK-OV-3 ovarian = system: SK-OV-3 ovarian
XF 498 CNS = system: XF 498 CNS
NCI-H23 lung = system: NCI-H23 lung
HCC-2998 colon = system: HCC-2998 colon
SN12C renal = system: SN12C renal
A498 renal = system: A498 renal
ACHN renal = system: ACHN renal
RPMI-8226 leukemia = system: RPMI-8226 leukemia
RXF-631 renal = system: RXF-631 renal
COLO 205 colon = system: COLO 205 colon
HT29 colon = system: HT29 colon
NCI-H226 lung = system: NCI-H226 lung
DMS 114 small cell lung = system: DMS 114 small cell lung
M14 melanoma = system: M14 melanoma
786-0 renal = system: 786-0 renal
CCRF-CEM leukemia = system: CCRF-CEM leukemia
HL-60(TB) leukemia = system: HL-60(TB) leukemia
RXF 393 renal = system: RXF 393 renal
KM20L2 colon = system: KM20L2 colon
HOP-18 NSCLC = system: HOP-18 NSCLC
SK-MEL-5 melanoma = system: SK-MEL-5 melanoma
SK-MEL-2 melanoma = system: SK-MEL-2 melanoma
MALME-3M melanoma = system: MALME-3M melanoma
DMS 273 small cell lung = system: DMS 273 small cell lung
A549 NSCLC = system: A549 NSCLC
SK-MEL-28 melanoma = system: SK-MEL-28 melanoma
LXFL 529 NSCLC = system: LXFL 529 NSCLC
UO-31 renal = system: UO-31 renal
HOP-92 NSCLC = system: HOP-92 NSCLC
EKVX NSCLC = system: EKVX NSCLC
SF-295 CNS = system: SF-295 CNS
HOP-62 NSCLC = system: HOP-62 NSCLC
NCI-H460 lung = system: NCI-H460 lung
KM12 colon = system: KM12 colon
U251 CNS = system: U251 CNS
IGROV1 ovarian = system: IGROV1 ovarian
SF-268 CNS = system: SF-268 CNS
K-562 leukemia = system: K-562 leukemia
OVCAR-4 ovarian = system: OVCAR-4 ovarian
NCI-H522 lung = system: NCI-H522 lung
SR leukemia = system: SR leukemia
LOX IMVI melanoma = system: LOX IMVI melanoma
TK-10 renal = system: TK-10 renal
SF-539 CNS = system: SF-539 CNS
HCT-15 colon = system: HCT-15 colon
OVCAR-3 ovarian = system: OVCAR-3 ovarian
SNB-78 CNS = system: SNB-78 CNS
SNB-19 CNS = system: SNB-19 CNS
SN12K1 renal = system: SN12K1 renal
MCF7 breast = system: MCF7 breast
P388 leukemia = system: P388 leukemia
P388/ADR leukemia = system: P388/ADR leukemia

## CC(C)(C)OC(=O)NC(Cc1ccc(O)cc1)C(=O)N1CCCC1C(=O)O (stereo not drawn) (Boc-Tyr-Pro-OH; configuration not given here)
UACC-62 melanoma
  TGI: > 100 µM
HCT-116 colon
  TGI: > 100 µM
OVCAR-8 ovarian
  TGI: > 100 µM
UACC-257 melanoma
  TGI: > 100 µM
MOLT-4 leukemia
  TGI: > 100 µM
SNB-75 CNS
  TGI: > 100 µM
OVCAR-5 ovarian
  TGI: > 100 µM
SW-620 colon
  TGI: > 100 µM
CAKI-1 renal
  TGI: > 100 µM
DLD-1 colon
  TGI: > 100 µM
M19-MEL melanoma
  TGI: > 100 µM
SK-OV-3 ovarian
  TGI: > 100 µM
XF 498 CNS
  TGI: > 100 µM
NCI-H23 lung
  TGI: > 100 µM
HCC-2998 colon
  TGI: > 100 µM
SN12C renal
  TGI: > 100 µM
A498 renal
  TGI: > 100 µM
ACHN renal
  TGI: > 100 µM
RPMI-8226 leukemia
  TGI: > 100 µM
RXF-631 renal
  TGI: > 100 µM
COLO 205 colon
  TGI: > 100 µM
HT29 colon
  TGI: > 100 µM
NCI-H226 lung
  TGI: > 100 µM
DMS 114 small cell lung
  TGI: > 100 µM
M14 melanoma
  TGI: > 100 µM
786-0 renal
  TGI: > 100 µM
CCRF-CEM leukemia
  TGI: > 100 µM
HL-60(TB) leukemia
  TGI: > 100 µM
RXF 393 renal
  TGI: > 100 µM
KM20L2 colon
  TGI: > 100 µM
HOP-18 NSCLC
  TGI: > 100 µM
SK-MEL-5 melanoma
  TGI: > 100 µM
SK-MEL-2 melanoma
  TGI: > 100 µM
MALME-3M melanoma
  TGI: > 100 µM
DMS 273 small cell lung
  TGI: > 100 µM
A549 NSCLC
  TGI: > 100 µM
SK-MEL-28 melanoma
  TGI: > 100 µM
LXFL 529 NSCLC
  TGI: > 100 µM
UO-31 renal
  TGI: > 100 µM
HOP-92 NSCLC
  TGI: > 100 µM
EKVX NSCLC
  TGI: > 100 µM
SF-295 CNS
  TGI: > 100 µM
HOP-62 NSCLC
  TGI: > 100 µM
NCI-H460 lung
  TGI: > 100 µM
KM12 colon
  TGI: > 100 µM
U251 CNS
  TGI: > 100 µM
IGROV1 ovarian
  TGI: > 100 µM
SF-268 CNS
  TGI: > 100 µM
K-562 leukemia
  TGI: > 100 µM
OVCAR-4 ovarian
  TGI: > 100 µM
NCI-H522 lung
  TGI: > 100 µM
SR leukemia
  TGI: > 100 µM
LOX IMVI melanoma
  TGI: > 100 µM
TK-10 renal
  TGI: > 100 µM
SF-539 CNS
  TGI: > 100 µM
HCT-15 colon
  TGI: > 100 µM
OVCAR-3 ovarian
  TGI: > 100 µM
SNB-78 CNS
  TGI: > 100 µM
SNB-19 CNS
  TGI: > 100 µM

## O=c1nc(NC2CCCCO2)ccn1CCO (stereo not drawn)
UACC-62 melanoma
  TGI: > 100 µM
HCT-116 colon
  TGI: > 100 µM
OVCAR-8 ovarian
  TGI: > 100 µM
UACC-257 melanoma
  TGI: > 100 µM
SNB-75 CNS
  TGI: > 100 µM
OVCAR-5 ovarian
  TGI: > 100 µM
SW-620 colon
  TGI: > 100 µM
CAKI-1 renal
  TGI: > 100 µM
DLD-1 colon
  TGI: > 100 µM
M19-MEL melanoma
  TGI: > 100 µM
SK-OV-3 ovarian
  TGI: > 100 µM
XF 498 CNS
  TGI: > 100 µM
SN12C renal
  TGI: > 100 µM
A498 renal
  TGI: > 100 µM
ACHN renal
  TGI: > 100 µM
RPMI-8226 leukemia
  TGI: > 100 µM
RXF-631 renal
  TGI: > 100 µM
COLO 205 colon
  TGI: > 100 µM
HT29 colon
  TGI: > 100 µM
NCI-H226 lung
  TGI: > 100 µM
DMS 114 small cell lung
  TGI: > 100 µM
M14 melanoma
  TGI: > 100 µM
786-0 renal
  TGI: > 100 µM
CCRF-CEM leukemia
  TGI: > 100 µM
HL-60(TB) leukemia
  TGI: > 100 µM
RXF 393 renal
  TGI: > 100 µM
KM20L2 colon
  TGI: > 100 µM
HOP-18 NSCLC
  TGI: > 100 µM
SK-MEL-5 melanoma
  TGI: > 100 µM
SK-MEL-2 melanoma
  TGI: > 100 µM
MALME-3M melanoma
  TGI: > 100 µM
DMS 273 small cell lung
  TGI: > 100 µM
A549 NSCLC
  TGI: > 100 µM
SK-MEL-28 melanoma
  TGI: > 100 µM
LXFL 529 NSCLC
  TGI: > 100 µM
UO-31 renal
  TGI: > 100 µM
HOP-92 NSCLC
  TGI: > 100 µM
EKVX NSCLC
  TGI: > 100 µM
SF-295 CNS
  TGI: > 100 µM
HOP-62 NSCLC
  TGI: > 100 µM
NCI-H460 lung
  TGI: > 100 µM
KM12 colon
  TGI: > 100 µM
U251 CNS
  TGI: > 100 µM
IGROV1 ovarian
  TGI: > 100 µM
SF-268 CNS
  TGI: > 100 µM
K-562 leukemia
  TGI: > 100 µM
OVCAR-4 ovarian
  TGI: > 100 µM
NCI-H522 lung
  TGI: > 100 µM
SR leukemia
  TGI: > 100 µM
LOX IMVI melanoma
  TGI: > 100 µM
TK-10 renal
  TGI: > 100 µM
SF-539 CNS
  TGI: > 100 µM
HCT-15 colon
  TGI: > 100 µM
OVCAR-3 ovarian
  TGI: > 100 µM
SNB-78 CNS
  TGI: > 100 µM

## CCN(CC)c1ccc2cc(C(=O)Nc3ccc4[nH]c(C(=O)N5C[C@@H](CCl)c6c5cc(OC(=O)Nc5ccccc5)c5[nH]cc(C)c65)cc4c3)oc2c1
UACC-62 melanoma
  GI50: 44.5 µM
HCT-116 colon
  TGI: 378 µM
OVCAR-8 ovarian
  TGI: > 1000 µM
UACC-257 melanoma
  TGI: > 1000 µM
MOLT-4 leukemia
  GI50: 294 µM
  TGI: > 1000 µM
SNB-75 CNS
  TGI: > 1000 µM
OVCAR-5 ovarian
  GI50: 264 µM
  TGI: 633 µM
SW-620 colon
  GI50: 207 µM
  TGI: > 1000 µM
CAKI-1 renal
  TGI: 9.11e-05 µM
SN12K1 renal
  GI50: 128 µM
  TGI: 387 µM
M19-MEL melanoma
  GI50: 237 µM
  TGI: 922 µM
NCI-H23 lung
  GI50: 230 µM
  TGI: > 1000 µM
HCC-2998 colon
  TGI: > 1000 µM
SN12C renal
  TGI: > 1000 µM
A498 renal
  TGI: 0.000864 µM
RPMI-8226 leukemia
  GI50: 681 µM
  TGI: > 1000 µM
COLO 205 colon
  GI50: > 1000 µM
  TGI: > 1000 µM
HT29 colon
  TGI: > 1000 µM
DMS 114 small cell lung
  GI50: 254 µM
  TGI: > 1000 µM
MCF7 breast
  GI50: 68.8 µM
  TGI: > 1000 µM
CCRF-CEM leukemia
  GI50: 178 µM
  TGI: > 1000 µM
HL-60(TB) leukemia
  GI50: 125 µM
  TGI: 624 µM
RXF 393 renal
  GI50: 202 µM
P388 leukemia
  GI50: 89.4 µM
KM20L2 colon
  TGI: > 1000 µM
SK-MEL-5 melanoma
  TGI: > 1000 µM
SK-MEL-2 melanoma
  GI50: > 1000 µM
  TGI: > 1000 µM
MALME-3M melanoma
  GI50: 510 µM
  TGI: > 1000 µM
P388/ADR leukemia
  TGI: > 1000 µM
DMS 273 small cell lung
  GI50: 70.4 µM
A549 NSCLC
  GI50: 147 µM
  TGI: > 1000 µM
SK-MEL-28 melanoma
  GI50: 401 µM
  TGI: > 1000 µM
UO-31 renal
  TGI: 982 µM
HOP-92 NSCLC
  TGI: > 1000 µM
EKVX NSCLC
  GI50: 448 µM
HOP-62 NSCLC
  GI50: 104 µM
NCI-H460 lung
  GI50: 39.4 µM
KM12 colon
  TGI: > 1000 µM
U251 CNS
  GI50: 92.7 µM
  TGI: 235 µM
IGROV1 ovarian
  GI50: 914 µM
  TGI: > 1000 µM
SF-268 CNS
  GI50: 133 µM
  TGI: 742 µM
K-562 leukemia
  GI50: 278 µM
  TGI: > 1000 µM
OVCAR-4 ovarian
  GI50: 428 µM
  TGI: > 1000 µM
NCI-H522 lung
  GI50: 438 µM
  TGI: > 1000 µM
LOX IMVI melanoma
  GI50: 295 µM
SF-539 CNS
  TGI: 796 µM
HCT-15 colon
  GI50: 539 µM
  TGI: > 1000 µM
OVCAR-3 ovarian
  TGI: > 1000 µM
SNB-78 CNS
  GI50: 83.7 µM
  TGI: > 1000 µM
SNB-19 CNS
  TGI: 758 µM
